# Data taken from article PMC10541198, “Specific quinone reductase 2 inhibitors reduce metabolic burden and reverse Alzheimer’s disease phenotype in mice” (The Journal of Clinical Investigation, 2023).
# Where “and” joins values, the source holds several entries; their conditions need not be identical. Equal entries are not always repeated.
# Biological target: T1, QR2 expressed in HEK293T (Homo sapiens, UniProt P16083)
# T1 construct: endogenous in cells; host or cells: HEK293T
# T1 sequence (P16083 1-231): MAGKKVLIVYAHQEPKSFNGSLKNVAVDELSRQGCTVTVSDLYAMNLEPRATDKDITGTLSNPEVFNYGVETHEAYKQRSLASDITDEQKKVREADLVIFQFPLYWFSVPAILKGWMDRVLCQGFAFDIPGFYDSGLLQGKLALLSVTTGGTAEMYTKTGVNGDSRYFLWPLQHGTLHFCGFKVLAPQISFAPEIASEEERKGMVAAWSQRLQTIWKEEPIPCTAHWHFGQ
# Assay: Cellular thermal shift assay (CETSA; Tagg curves and ITDRF)
# Type: cell-based
# Details: 73°C, n = 3; read-out: EC50, isothermal dose-response of QR2 stabilization
# Experimental: To establish direct target engagement and cell membrane permeability, a cellular thermal shift assay (CETSA) was carried out, using leading QR2is YB’s-537, 800, and 808. Following a 1 hour preincubation with 5 μM of the QR2is or vehicle, thermal aggregation curves (Taggs) of QR2 expressed in HEK293T were measured in increasing temperatures. All QR2is increased QR2 thermal stability compared with vehicle (Supplemental Figure 2A). Based on the Tagg curves we selected 73°C for isothermal dose-response fingerprint (IDTRF) experiments (Supplemental Figure 2B). The ITDRF allowed the relative quantification of the binding of each of the QR2is to QR2, measured as the EC50 (Figure 3A). […] We evaluated the safety of the QR2is using cell toxicity and viability assays. […] Cell viability was assessed by XTT assay in HEK239T cells, using a dose response, with 3- or 24-hour incubations of the leading QR2is. No sign of toxicity was seen (Figure 3C). Next, we wanted to assess if, similar to QR2 KO, QR2is can reduce cellular ROS in HCT116 cells and see whether any observable effect is occluded in QR2Δ cells. […] We then assessed WT HCT116 cells by immunoblot (Supplemental Figure 2, C and D), after being treated with YB-800 (2 μM) for 4 consecutive days.
# H2DCFDA ROS assay was carried out according to established protocols, with some adjustment (Supplemental Methods) ([6]). Cell toxicity was measured via ATP depletion (CellTiter Glo, Promega) in THLE-2 cells (ATCC, CRL-2706), following 72 hours of exposure to the test compounds, and cell viability was assessed using XTT assay (Biological Industries) according to manufacturers protocols. CETSA was performed as previously described ([53]) with some modifications, using QR2 (Santa Cruz, sc-271665) and SOD1 (Santa Cruz, sc-17767) antibodies. SDS-PAGE and immunoblot imaging were carried out as previously described ([55]), using Tubulin (Sigma-Aldrich, SAB4500087), QR2 (Santa Cruz, sc-271665), NDUFA9 (AbCam, ab14713) and CD73 (Cell Signaling Technology, D7F9A) antibodies. […]
# HEK293FT cells were cultured with penicillin- streptomycin antibiotics in Invitrogen DMEM (Thermo
# Fisher Scientific) with 10% fetal bovine serum a nd L -glutamine, and grown to 80-90% confluence in 100
# mm plates, while being passaged every 2–3 d. […]
# Cellular The rm a l Shift Assay (CETSA)
# The CETSA assay was performed as described(54) with some modifications. Bri efl y, HEK293T cel ls wer e
# trypsinized (Biological Indust ri es), washed in PBS (Sigma-Aldrich) and then suspended in PBS containing
# protease inhibitor cocktail (Roche). The suspended cells were then divided into two Eppendorf tubes and
# were treated with either compound or DMSO (Sigma-Aldrich) for 1h at 37 °C with shaking. Following
# treatment, each sample was divided into PCR tubes (100µL/tube) and subjected to a temperature gradient
# (ranging fr om 63 to 80 °C) for 3 minutes. Cell lysates we r e obtained by 3- cycles of freeze- t ha w using li qui d
# nitrogen and a thermal bl ock set to 25 °C. Samples were then centrifuged at 15,000rpm at 4 °C f or 20min a nd
# were subsequently analyzed by Western Blot of QR2 (1:100, Santa Cruz; sc-271665). The isothermal
# concentration response fingerprint (ITDRF) experiments were done using a constant temperature of 73 °C.
# Band intensities were normalized to the highest concentration and SOD1 levels (1:200, Santa Cruz; sc -
# (§1) 17767). Analysis of the results wer e done in accordance to Jafari et a l .( 63) us i ng GraphPad Pr i sm software.
row,EC50,Structure (SMILES)
1,34 nM,Cc1ccc(-c2cn3cccc(C)c3n2)cc1S(=O)(=O)N1CCC(C)CC1 [YB-800]
2,13 nM,Cc1ccc(-c2cn3cccc(C)c3n2)cc1S(=O)(=O)N1CCCC1 [YB-808]

# Same assay, conditions: 73°C; log[Inhibitor], M -5
row,"QR2 stabilization signal, ITDRF (replicates)",Structure (SMILES)
1,4070 and 3736,Cc1ccc(-c2cn3cccc(C)c3n2)cc1S(=O)(=O)N1CCC(C)CC1 [YB-800]
2,11691 and 8388 and 13855,Cc1ccc(-c2cn3cccc(C)c3n2)cc1S(=O)(=O)N1CCCC1 [YB-808]

# Same assay, conditions: 73°C; log[Inhibitor], M -5.6
row,"QR2 stabilization signal, ITDRF (replicates)",Structure (SMILES)
1,4506 and 4561 and 4867,Cc1ccc(-c2cn3cccc(C)c3n2)cc1S(=O)(=O)N1CCC(C)CC1 [YB-800]
2,12608 and 8899 and 18621,Cc1ccc(-c2cn3cccc(C)c3n2)cc1S(=O)(=O)N1CCCC1 [YB-808]

# Same assay, conditions: 73°C; log[Inhibitor], M -5.9
row,"QR2 stabilization signal, ITDRF (replicates)",Structure (SMILES)
1,4786 and 3969 and 5175,Cc1ccc(-c2cn3cccc(C)c3n2)cc1S(=O)(=O)N1CCC(C)CC1 [YB-800]
2,7977 and 16388,Cc1ccc(-c2cn3cccc(C)c3n2)cc1S(=O)(=O)N1CCCC1 [YB-808]

# Same assay, conditions: 73°C; log[Inhibitor], M -6.2
row,"QR2 stabilization signal, ITDRF (replicates)",Structure (SMILES)
1,5056 and 3732 and 5224,Cc1ccc(-c2cn3cccc(C)c3n2)cc1S(=O)(=O)N1CCC(C)CC1 [YB-800]
2,13431 and 8528 and 16152,Cc1ccc(-c2cn3cccc(C)c3n2)cc1S(=O)(=O)N1CCCC1 [YB-808]

# Same assay, conditions: 73°C; log[Inhibitor], M -6.5
row,"QR2 stabilization signal, ITDRF (replicates)",Structure (SMILES)
1,4815 and 4201 and 4200,Cc1ccc(-c2cn3cccc(C)c3n2)cc1S(=O)(=O)N1CCC(C)CC1 [YB-800]
2,13807 and 8233 and 15986,Cc1ccc(-c2cn3cccc(C)c3n2)cc1S(=O)(=O)N1CCCC1 [YB-808]

# Same assay, conditions: 73°C; log[Inhibitor], M -6.8
row,"QR2 stabilization signal, ITDRF (replicates)",Structure (SMILES)
1,4651 and 3683 and 3564,Cc1ccc(-c2cn3cccc(C)c3n2)cc1S(=O)(=O)N1CCC(C)CC1 [YB-800]
2,13304 and 17220,Cc1ccc(-c2cn3cccc(C)c3n2)cc1S(=O)(=O)N1CCCC1 [YB-808]

# Same assay, conditions: 73°C; log[Inhibitor], M -7.1
row,"QR2 stabilization signal, ITDRF (replicates)",Structure (SMILES)
1,3508 and 2203 and 2700,Cc1ccc(-c2cn3cccc(C)c3n2)cc1S(=O)(=O)N1CCC(C)CC1 [YB-800]
2,11995 and 8077 and 17779,Cc1ccc(-c2cn3cccc(C)c3n2)cc1S(=O)(=O)N1CCCC1 [YB-808]

# Same assay, conditions: 73°C; log[Inhibitor], M -7.4
row,"QR2 stabilization signal, ITDRF (replicates)",Structure (SMILES)
1,2230 and 1871 and 2017,Cc1ccc(-c2cn3cccc(C)c3n2)cc1S(=O)(=O)N1CCC(C)CC1 [YB-800]
2,9109 and 4692 and 13840,Cc1ccc(-c2cn3cccc(C)c3n2)cc1S(=O)(=O)N1CCCC1 [YB-808]

# Same assay, conditions: 73°C; log[Inhibitor], M -7.7
row,"QR2 stabilization signal, ITDRF (replicates)",Structure (SMILES)
1,1054 and 942 and 1103,Cc1ccc(-c2cn3cccc(C)c3n2)cc1S(=O)(=O)N1CCC(C)CC1 [YB-800]
2,6837 and 3416 and 9444,Cc1ccc(-c2cn3cccc(C)c3n2)cc1S(=O)(=O)N1CCCC1 [YB-808]

# Same assay, conditions: 73°C; log[Inhibitor], M -8
row,"QR2 stabilization signal, ITDRF (replicates)",Structure (SMILES)
1,655 and 480 and 469,Cc1ccc(-c2cn3cccc(C)c3n2)cc1S(=O)(=O)N1CCC(C)CC1 [YB-800]
2,2555 and 1788 and 4021,Cc1ccc(-c2cn3cccc(C)c3n2)cc1S(=O)(=O)N1CCCC1 [YB-808]

# Same assay, conditions: 73°C; log[Inhibitor], M -9
row,"QR2 stabilization signal, ITDRF (replicates)",Structure (SMILES)
1,36 and 24 and 14,Cc1ccc(-c2cn3cccc(C)c3n2)cc1S(=O)(=O)N1CCC(C)CC1 [YB-800]
2,121 and 492 and 263,Cc1ccc(-c2cn3cccc(C)c3n2)cc1S(=O)(=O)N1CCCC1 [YB-808]

# Tested on: THLE-2 cells
# Assay: ATP depletion cell toxicity assay (CellTiter Glo), 72 h
# Type: cell-based
# Details: THLE2, 72 hour; inhibitor 3.9e-7 M; in % (unit assumed)
# Experimental: H2DCFDA ROS assay was carried out according to established protocols, with some adjustment (Supplemental Methods) ([6]). Cell toxicity was measured via ATP depletion (CellTiter Glo, Promega) in THLE-2 cells (ATCC, CRL-2706), following 72 hours of exposure to the test compounds, and cell viability was assessed using XTT assay (Biological Industries) according to manufacturers protocols. CETSA was performed as previously described ([53]) with some modifications, using QR2 (Santa Cruz, sc-271665) and SOD1 (Santa Cruz, sc-17767) antibodies. SDS-PAGE and immunoblot imaging were carried out as previously described ([55]), using Tubulin (Sigma-Aldrich, SAB4500087), QR2 (Santa Cruz, sc-271665), NDUFA9 (AbCam, ab14713) and CD73 (Cell Signaling Technology, D7F9A) antibodies.
# with a 100 µM as upper limit, for 72 h. […]
# Cellular The rm a l Shift Assay (CETSA) […]
# as §1
row,Structure (SMILES),"cell viability, Cell-Titer-Glo (replicates)"
1,Cc1ccc(-c2cn3cccc(C)c3n2)cc1S(=O)(=O)N1CCC(C)CC1 [YB-800],96.3 and 111.4
2,Cc1ccc(-c2cn3cccc(C)c3n2)cc1S(=O)(=O)N1CCCC1 [YB-808],96.4 and 99.1

# Same assay, conditions: THLE2, 72 hour; inhibitor 7.8e-7 M; in % (unit assumed)
row,Structure (SMILES),"cell viability, Cell-Titer-Glo (replicates)"
1,Cc1ccc(-c2cn3cccc(C)c3n2)cc1S(=O)(=O)N1CCC(C)CC1 [YB-800],111.0 and 92.8
2,Cc1ccc(-c2cn3cccc(C)c3n2)cc1S(=O)(=O)N1CCCC1 [YB-808],91.2 and 88.9

# Same assay, conditions: THLE2, 72 hour; inhibitor 1.5625e-6 M; in % (unit assumed)
row,Structure (SMILES),"cell viability, Cell-Titer-Glo (replicates)"
1,Cc1ccc(-c2cn3cccc(C)c3n2)cc1S(=O)(=O)N1CCC(C)CC1 [YB-800],96.0
2,Cc1ccc(-c2cn3cccc(C)c3n2)cc1S(=O)(=O)N1CCCC1 [YB-808],98.0 and 97.5

# Same assay, conditions: THLE2, 72 hour; inhibitor 3.125e-6 M; in % (unit assumed)
row,Structure (SMILES),"cell viability, Cell-Titer-Glo (replicates)"
1,Cc1ccc(-c2cn3cccc(C)c3n2)cc1S(=O)(=O)N1CCC(C)CC1 [YB-800],102.0 and 98.8
2,Cc1ccc(-c2cn3cccc(C)c3n2)cc1S(=O)(=O)N1CCCC1 [YB-808],92.2 and 93.9

# Same assay, conditions: THLE2, 72 hour; inhibitor 6.25e-6 M; in % (unit assumed)
row,Structure (SMILES),"cell viability, Cell-Titer-Glo (replicates)"
1,Cc1ccc(-c2cn3cccc(C)c3n2)cc1S(=O)(=O)N1CCC(C)CC1 [YB-800],95.3 and 97.2
2,Cc1ccc(-c2cn3cccc(C)c3n2)cc1S(=O)(=O)N1CCCC1 [YB-808],94.7 and 93.5

# Same assay, conditions: THLE2, 72 hour; inhibitor 1.25e-5 M; in % (unit assumed)
row,Structure (SMILES),"cell viability, Cell-Titer-Glo (replicates)"
1,Cc1ccc(-c2cn3cccc(C)c3n2)cc1S(=O)(=O)N1CCC(C)CC1 [YB-800],87.5 and 81.6
2,Cc1ccc(-c2cn3cccc(C)c3n2)cc1S(=O)(=O)N1CCCC1 [YB-808],90.2 and 79.5

# Same assay, conditions: THLE2, 72 hour; inhibitor 2.5e-5 M; in % (unit assumed)
row,Structure (SMILES),"cell viability, Cell-Titer-Glo (replicates)"
1,Cc1ccc(-c2cn3cccc(C)c3n2)cc1S(=O)(=O)N1CCC(C)CC1 [YB-800],74.8 and 70.3
2,Cc1ccc(-c2cn3cccc(C)c3n2)cc1S(=O)(=O)N1CCCC1 [YB-808],79.2 and 86.7

# Same assay, conditions: THLE2, 72 hour; inhibitor 5e-5 M; in % (unit assumed)
row,Structure (SMILES),"cell viability, Cell-Titer-Glo (replicates)"
1,Cc1ccc(-c2cn3cccc(C)c3n2)cc1S(=O)(=O)N1CCC(C)CC1 [YB-800],54.4 and 53.1
2,Cc1ccc(-c2cn3cccc(C)c3n2)cc1S(=O)(=O)N1CCCC1 [YB-808],66.4 and 67.9

# Same assay, conditions: THLE2, 72 hour; inhibitor 0.0001 M; in % (unit assumed)
row,Structure (SMILES),"cell viability, Cell-Titer-Glo (replicates)"
1,Cc1ccc(-c2cn3cccc(C)c3n2)cc1S(=O)(=O)N1CCC(C)CC1 [YB-800],50.5 and 51.2
2,Cc1ccc(-c2cn3cccc(C)c3n2)cc1S(=O)(=O)N1CCCC1 [YB-808],22.2 and 20.2

# Same assay, conditions: THLE2 cells, 72 hour incubation
row,Structure (SMILES),"LD50, cell viability (Cell-Titer-Glo)"
1,Cc1ccc(-c2cn3cccc(C)c3n2)cc1S(=O)(=O)N1CCC(C)CC1 [YB-800],78.401 µM
2,Cc1ccc(-c2cn3cccc(C)c3n2)cc1S(=O)(=O)N1CCCC1 [YB-808],59.704 µM
